Reference: US8263585B2, “Organic compounds” (Novartis AG, priority 2007, dated 2012)

Target: T1, human PI 3-Kγ (Homo sapiens, UniProt P48736)
T1 construct: Residues 38-1102 of human PI 3-Kγ are subcloned; made in house; host or cells: Sf9 (Spodoptera frugiperda) insect cells, baculovirus
Test: in vitro kinase assay (Scintillation Proximity Assay): transfer of terminal phosphate of ATP to phosphatidylinositol
Assay type: biochemical
Details: recombinant GST-p110γ, 12.5 μM ATP assay mix, 60 minutes room temperature
Text: Baculovirus expressing different fragments of human PI 3-Kγ fused to glutathione S-transferase (GST) have been previously described by Stoyanova, S., Bulgarelli-Leva, G., Kirsch, C., Hanck, T., Klinger, R., Wetzker, R., Wymann, M. P. (1997) Lipid- and protein kinase activities of G protein-coupled PI 3-kinase g: structure-activity analysis and interactions with wortmannin. Biochem. J., 324:489. Residues 38-1102 of human PI 3-Kγ are subcloned into the BamH1 and EcoR1 sites of the transfer vector pAcG2T (Pharmingen) to create a GST-PI 3-Kγ lacking the first 37 residues of PI 3-Kγ. To express the recombinant protein, Sf9 (Spodoptera frugiperda 9) insect cells are routinely maintained at densities between 3×10^5 and 3×10^6 cells/ml in serum containing TNMFH medium (Sigma). Sf9 cells, at a density of 2×10^6 are infected with human […] baculovirus at a multiplicity of infection (m.o.i.) of 1 for 72 hours. The infected cells are harvested by centrifugation at 1400 g for 4 minutes at 4° C. and the cell pellets are frozen at −80° C. Both Sf9 and Sf21 cells work equally well. Sf9 cells (1×10^9) are resuspended in 100 ml cold (4° C.) lysis buffer (50 mM Tris-HCl pH 7.5, 1% Triton X-100, 150 mM NaCl, 1 mM NaF, 2 mM DTT and protease inhibitors. Cells are incubated on ice for 30 minutes then centrifuged at 15000 g for 20 minutes at 4° C. Purification of the supernatant sample is carried out at 4° C. by affinity chromatography using SEPHAROSE™ agarose gel beads coupled to glutathione (from Amersham Pharmacia Biotech). A cell lysate/GST resin ratio of 50:1 is used. The GST resin is firstly pre-rinsed to remove ethanol preservative and then equilibrated with lysis buffer. Cell lysate (supernatant) is added (usually as 50 ml lysate to 1 ml GST resin in 50 ml tubes) and gently rotated on a mixer at 4° C. for 2-3 hours. The unbound flow through sample is collected by centrifugation at 1000 g for 5 minutes at 4° C. using a DENLEY™ centrifuge. The 1 ml GST resin containing bound material is transferred to a 15 ml FALCON™ centrifuge tube for subsequent washing and elution steps. Firstly a series of 3 cycles of washings (mixing by gentle inversion) is performed with 15 ml ice cold wash Buffer A (50 mM Tris-HCl pH 7.5, 1% Triton X-100, 2 mM DTT) interspersed with centrifugation at 1000 g for 5 minutes at 4° C. A final single wash step is performed with 15 ml ice cold wash Buffer B (50 mM Tris-HCl pH 7.5, 2 mM DTT) and then centrifuged at 1050 g for 5 minutes at 4° C. The washed GST resin is finally eluted with 4 cycles of 1 ml ice cold elution buffer (50 mM Tris-HCl pH 7.5, 10 mM reduced glutathione, 2 mM DTT, 150 mM NaCl, 1 mM NaF, 50% ethylene glycol and protease inhibitors) interspersed with centrifugation at 1000 g for 5 minutes at 4° C. Samples are aliquoted and stored at −20° C.
An in vitro kinase assay was established that measures the transfer of the terminal phosphate of adenosine triphosphate to phosphatidylinositol. The kinase reaction is performed in a white 96 well microtitre plate as a Scintillation Proximity Assay. Each well contains 10 μl test compound in 5% dimethylsulphoxide and 20 μl assay mix (40 mM Tris, 200 mM NaCl, 2 mM ethyleneglycol-aminoethyl-tetraacetic acid (EGTA), 15 μg/ml phosphatidylinositol, 12.5 μM adenosine triphosphate (ATP), 25 mM MgCl2, 0.1 μCi [^33P]ATP). The reaction is started by the addition of 20 μl of enzyme mix (40 mM Tris, 200 mM NaCl, 2 mM EGTA containing recombinant GST-p110γ). […]

T1 sequence (P48736 38-1102): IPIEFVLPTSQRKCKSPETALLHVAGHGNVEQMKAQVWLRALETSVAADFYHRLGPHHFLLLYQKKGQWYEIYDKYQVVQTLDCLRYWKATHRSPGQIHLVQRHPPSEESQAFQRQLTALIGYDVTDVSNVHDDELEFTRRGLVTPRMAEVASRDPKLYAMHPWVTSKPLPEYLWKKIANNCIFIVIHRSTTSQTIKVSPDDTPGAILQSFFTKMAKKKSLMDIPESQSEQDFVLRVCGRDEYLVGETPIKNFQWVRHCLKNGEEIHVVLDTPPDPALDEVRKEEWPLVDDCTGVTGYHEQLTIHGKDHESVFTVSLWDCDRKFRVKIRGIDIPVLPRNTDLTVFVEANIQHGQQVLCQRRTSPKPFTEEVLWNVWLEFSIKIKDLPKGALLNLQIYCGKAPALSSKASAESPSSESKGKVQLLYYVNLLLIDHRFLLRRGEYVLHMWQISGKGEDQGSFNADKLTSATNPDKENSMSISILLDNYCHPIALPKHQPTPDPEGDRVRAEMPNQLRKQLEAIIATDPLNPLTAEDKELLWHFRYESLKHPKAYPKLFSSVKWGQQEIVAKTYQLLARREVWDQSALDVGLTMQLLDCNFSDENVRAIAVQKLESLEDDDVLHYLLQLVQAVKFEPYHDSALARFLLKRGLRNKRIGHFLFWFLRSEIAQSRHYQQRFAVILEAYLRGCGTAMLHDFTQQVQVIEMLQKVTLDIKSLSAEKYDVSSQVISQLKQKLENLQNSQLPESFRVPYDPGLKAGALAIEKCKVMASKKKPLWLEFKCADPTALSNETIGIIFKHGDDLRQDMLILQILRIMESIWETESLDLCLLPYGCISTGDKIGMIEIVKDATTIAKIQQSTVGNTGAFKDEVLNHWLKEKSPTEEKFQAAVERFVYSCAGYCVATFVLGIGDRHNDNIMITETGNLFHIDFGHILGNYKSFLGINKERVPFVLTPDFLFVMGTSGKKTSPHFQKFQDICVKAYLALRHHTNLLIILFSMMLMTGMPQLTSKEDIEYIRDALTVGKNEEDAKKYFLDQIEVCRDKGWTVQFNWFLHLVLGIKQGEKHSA

IC50 [nM] | Structure (SMILES)
4 | Cc1nc(N)ncc1-c1ccc(Cl)c(S(=O)(=O)Nc2ccccc2)c1 [Example 1-1, 5-(2-Amino-4-methyl-pyrimidin-5-yl)-2-chloro-N-phenyl-benzenesulfonamide]
239 | Cc1nc(N)ncc1-c1ccc(Cl)c(S(=O)(=O)N(C)C)c1 [Example 1-15, 5-(2-Amino-4-methyl-pyrimidin-5-yl)-2-chloro-N2N-dimethyl-benzenesulfonamide]
135 | Cc1nc(N)ncc1-c1ccc(Cl)c(S(=O)(=O)N2CC(O)C2)c1 [Example 1-30, 1-[5-(2-Amino-4-methyl-pyrimidin-5-yl)-2-chloro-benzenesulfonyl]-azetidin-3-ol]
50 | Cc1nc(N)ncc1-c1ccc(Cl)c(NS(=O)(=O)c2ccccc2)c1 [Example 1-50, N-[5-(2-Amino-4-methyl-pyrimidin-5-yl)-2-chloro-phenyl]-benzenesulfonamide]
223 | Cc1nc(N)ncc1-c1ccnc(C(C)(C)C)n1 [Example 2-1, 2-tert-Butyl-4′-methyl-[4,5′]bipyrimidinyl-2′-ylamine]
219 | Cc1nc(N)ncc1-c1ccc(Cl)c(S(=O)(=O)NC2CC2)c1 [Example 3-1, 5-(2-Amino-4-methyl-pyrimidin-5-yl)-2-chloro-N-cyclopropyl-benzenesulfonamide]
305 | Cc1nc(N)ncc1-c1ccc(Cl)c(S(=O)(=O)N[C@H]2CC[C@@H](NC(=O)OC(C)(C)C)CC2)c1 [Example 3-17, cis-{4-[5-(2-Amino-4-methyl-pyrimidin-5-yl)-2-chloro-benzenesulfonylamino]-cyclohexyl}-carbamic acid tert-butyl ester]
16 | Cc1nc(N)ncc1-c1ccc(Cl)c(NS(=O)(=O)c2cccc(Cl)c2)c1 [Example 3-35, N-[5-(2-Amino-4-methyl-pyrimidin-5-yl)-2-chloro-phenyl]-3-chloro-benzene sulfonamide]
108 | Cc1nc(N)ncc1-c1ccc(C(F)(F)F)c(S(=O)(=O)N[C@@H]2CCC[C@@H]2O)c1 [Example 3-53, 5-(2-Amino-4-methyl-pyrimidin-5-yl)-N-((1R,2S)-2-hydroxy-cyclopentyl)-2-trifluoromethyl-benzenesulfonamide]
